≈ marks a conversion by molar mass, not a printed value.
Legend:
Format in all cases: functional
Enterococcus faecalis [1] = assay: Antibacterial activity against vancomycin-sensitive Enterococcus faecalis ATCC 29212
Enterococcus faecalis [2] = assay: Antibacterial activity against vancomycin-resistant Enterococcus faecalis NCTC 12201
Enterococcus faecium = assay: Antibacterial activity against vancomycin-resistant Enterococcus faecium ATCC 12202
Staphylococcus aureus [3] = assay: Antibacterial activity against methicillin-resistant Staphylococcus aureus ATCC 33591
Staphylococcus aureus [4] = assay: Antibacterial activity against Staphylococcus aureus ATCC 29213
Staphylococcus aureus [5] = assay: Antibacterial activity against Staphylococcus aureus ATCC 49951

| Structure (SMILES) | MIC (Enterococcus faecalis [1]) [mg/L] | MIC (Enterococcus faecalis [2]) [mg/L] | MIC (Enterococcus faecium) [mg/L] | MIC (Staphylococcus aureus [3]) [mg/L] | MIC (Staphylococcus aureus [4]) [mg/L] | MIC (Staphylococcus aureus [5]) [mg/L] |
| --- | --- | --- | --- | --- | --- | --- |
| CC(=O)NC[C@H]1CN(c2ccc3c(c2)N(C(=O)OCc2ccccc2)C[C@@H]2CCCN32)C(=O)O1 | > 32 | > 32 | > 32 | > 32 | > 32 | > 32 |
| COC(=S)NC[C@H]1CN(c2ccc3c(c2)SC[C@@H]2CCCN32)C(=O)O1 | 0.25 (≈ 0.659 µM) | 0.25 (≈ 0.659 µM) | 0.5 (≈ 1.32 µM) | 0.25 (≈ 0.659 µM) | 0.5 (≈ 1.32 µM) | 1 (≈ 2.63 µM) |
| CNC(=S)NC[C@H]1CN(c2cc(F)c3c(c2)SC[C@@H]2CCCN32)C(=O)O1 | 1 (≈ 2.52 µM) | 0.5 (≈ 1.26 µM) | 1 (≈ 2.52 µM) | 0.5 (≈ 1.26 µM) | 2 (≈ 5.04 µM) | 0.5 (≈ 1.26 µM) |
| COC(=S)NC[C@H]1CN(c2cc(F)c3c(c2)SC[C@@H]2CCCN32)C(=O)O1 | 1 (≈ 2.52 µM) | 0.5 (≈ 1.26 µM) | 0.5 (≈ 1.26 µM) | 0.5 (≈ 1.26 µM) | 1 (≈ 2.52 µM) | 1 (≈ 2.52 µM) |
| CN[C@H](CC(C)C)C(=O)N[C@H]1C(=O)N[C@@H](CC(N)=O)C(=O)N[C@H]2C(=O)N[C@H]3C(=O)N[C@H](C(=O)N[C@H](C(=O)O)c4cc(O)cc(O)c4-c4cc3ccc4O)[C@H](O)c3ccc(c(Cl)c3)Oc3cc2cc(c3O[C@@H]2O[C@H](CO)[C@@H](O)[C@H](O)[C@H]2O[C@H]2C[C@](C)(N)[C@H](O)[C@H](C)O2)Oc2ccc(cc2Cl)[C@H]1O [VANCOMYCIN] | 2 (≈ 1.38 µM) | > 32 | > 32 | – | – | – |
| CC(=O)NC[C@H]1CN(c2ccc3c(c2)OC[C@@H]2CCCN32)C(=O)O1 | 16 (≈ 48.3 µM) | 16 (≈ 48.3 µM) | 16 (≈ 48.3 µM) | 4 (≈ 12.1 µM) | 8 (≈ 24.1 µM) | 4 (≈ 12.1 µM) |
| CC(=O)NC[C@H]1CN(c2ccc3c(c2)N(C=O)C[C@@H]2CCCN32)C(=O)O1 | > 256 | > 256 | > 256 | > 256 | > 256 | > 256 |
| CC(=O)NC[C@H]1CN(c2ccc3c(c2)N(C(=O)CCl)C[C@@H]2CCCN32)C(=O)O1 | > 256 | > 256 | > 256 | > 256 | > 256 | > 256 |
| CC(=O)NC[C@H]1CN(c2ccc3c(c2)S(=O)(=O)C[C@@H]2CCCN32)C(=O)O1 | > 32 | > 32 | > 32 | > 32 | > 32 | > 32 |
| CC(=O)NC[C@H]1CN(c2cc(F)c3c(c2)N(C)C[C@@H]2CCCN32)C(=O)O1 | > 32 | > 32 | 32 (≈ 88.3 µM) | > 32 | > 32 | > 32 |
| CC(=O)NC[C@H]1CN(c2ccc(N3CCOCC3)c(F)c2)C(=O)O1 [LINEZOLID] | – | – | 2 (≈ 5.93 µM) | 1 (≈ 2.96 µM) | – | – |
| COC(=S)NC[C@H]1CN(c2cc(F)c3c(c2)N(C)C[C@@H]2CCCN32)C(=O)O1 | > 32 | > 32 | 32 (≈ 81.1 µM) | > 32 | > 32 | > 32 |
| C/C(S)=N/C[C@H]1CN(c2cc(F)c3c(c2)SC[C@@H]2CCCN32)C(=O)O1 | 0.5 (≈ 1.31 µM) | 0.25 (≈ 0.655 µM) | 0.25 (≈ 0.655 µM) | 0.25 (≈ 0.655 µM) | 0.5 (≈ 1.31 µM) | 0.5 (≈ 1.31 µM) |
| CC(=O)NC[C@H]1CN(c2ccc3c(c2)N(C(C)=O)C[C@@H]2CCCN32)C(=O)O1 | > 256 | > 256 | > 256 | > 256 | > 256 | > 256 |
| CC(=O)NC[C@H]1CN(c2cc(F)c3c(c2)SC[C@@H]2CCCN32)C(=O)O1 | 2 (≈ 5.47 µM) | 1 (≈ 2.74 µM) | 2 (≈ 5.47 µM) | 1 (≈ 2.74 µM) | 2 (≈ 5.47 µM) | 1 (≈ 2.74 µM) |
| CC(=O)NC[C@H]1CN(c2ccc3c(c2)SC[C@@H]2CCCN32)C(=O)O1 | 8 (≈ 23 µM) | 8 (≈ 23 µM) | 8 (≈ 23 µM) | 8 (≈ 23 µM) | 8 (≈ 23 µM) | 8 (≈ 23 µM) |

— ChEMBL document CHEMBL1145316, “Synthesis of novel tricyclic oxazolidinones by a tandem SN2 and SNAr reaction: SAR studies on conformationally constrained analogues of Linezolid” (2006)
